No end group written: not given here.

Results on 1 substance are retold here after patent US20250090626A1, “NEW PEPTIDE AND USES THEREOF” (Neo Cremar Co., Ltd., priority 2021, published 2025).

The assay relates to C2C12 cells. Put plainly: C2C12 cell proliferation (MTT method). The format is cell-based, mouse. The conditions noted are these: C2C12, peptide 1000 nM, 1 day, MTT; FIG. 4. On the procedure: C2C12 cells, a mouse myoblast line, were cultured in Dulbecco's Modified Eagle's Medium (DMEM)+10% fetal bovine serum (FBS)+1% penicillin/streptomycin (P/S). To validate the effect of MIF peptide, C2C12 cells (2×10^3 cells/ml) were placed in a 12 well cell culture dish and attached for 24 hours, and MIF peptide (1000 nM) was treated for 1 day to observe cell proliferation by MTT method. The medium was replaced every 2 days, and the cells were cultured at 37° C.
To validate cell proliferation, the culture medium of the cells was removed, the cells were washed with DMEM, 500 μl of MTT reagent (0.5 mg/ml) dissolved in phosphate buffered saline (PBS) was added to each well, and the cells were left at 37° C. for 1 hour. The reaction solution was removed, and 1000 μl of DMSO was added to each well. Purple formazan crystals were completely dissolved in DMSO, and the absorbance was measured at 540 nm.
(Tetrazolium assays rely on reduction of a dye to a coloured formazan, in cell work by metabolically active cells.)

Regarding “Ac-VDFEAFWDWG [Ac-MIF1, MIF1 with N-terminus acetylated, 10 mer]”, the “cell proliferation, increase compared to cells without peptide treatment” value turned out to be 24%.
